What was measured:
[1] = biological target: T1, human ACC1 (Homo sapiens, UniProt Q13085); assay: ACC1 inhibitory activity (malachite green); type: biochemical; conditions: test compound 10 μM; for inhibition at 10 µM: read-out: ACC1 10 μM inhibitory rate (%)
T1 construct: His6 (from vector pFAST-BacHTc); made in house; host or cells: SF-9 insect cells, recombinant baculovirus BAC-ACC1
Procedure: The ACC1 inhibitory action of the compound of the present invention was evaluated by the following method.
(1) Cloning of Human ACC1 Gene and Preparation of Recombinant Baculovirus
(§1) Human ACC1 gene was cloned by PCR using a human liver cDNA library (Clontech) as a template and Primer 1 and Primer 2 shown below. Primer 1 and Primer 2 were prepared by adding SalI, NotI restriction enzyme recognition sequences based on the information of the base sequence of human ACC1 gene (Genbank Accession U19822).
(§2) PCR was performed using Pyrobest DNA polymerase (TAKARA BIO INC.). The obtained PCR product was cloned to pT7 Blue vector (Novagen) and, after confirmation of the base sequence, digested with restriction enzymes SalI and NotI. The obtained DNA fragment was inserted into pFAST-BacHTc (Invitrogen) digested with restriction enzymes SalI and NotI to give expression plasmid ACC1/pFAST-BacHTc.
Using the expression plasmid ACC1/pFAST-BacHTc and BAC-TO-BAC Baculovirus Expression System (Invitrogen), virus stock BAC-ACC1 of recombinant Baculovirus was prepared.
(2) Preparation of ACC1 Protein
(§3) SF-9 cells (Invitrogen) were inoculated to a medium (1 L) for insect cells (Sf-900IISFM medium (Invitrogen) containing 10% fetal bovine serum (Trace), 50 mg/L Gentamicin (Invitrogen), 0.1% Pluronic F-68 (Invitrogen)) at 1×10^6 cells/mL, and cultured with shaking in 2 L meyer at 27° C., 100 rpm.
After 24 hr of the culture, 10 mL of recombinant Baculovirus BAC-ACC1 was added, and the cells were cultured for 3 days. The culture medium was centrifuged at 1000×g for 5 min to give virus-infected cells. The cells were washed with phosphate buffered saline (Invitrogen) and centrifuged under the same conditions. The obtained cells were cryopreserved at −80° C.
The cryopreserved cells were thawed in ice and suspended in 100 mL of 25 mM HEPES buffer (pH 7.5) containing 10% Glycerol, 0.13 M NaCl, 1 mM EDTA, 25 mM Sodium […] and 1 mM Sodium Orthovanadate, and supplemented with Complete Protease Inhibitor (Nippon Boehringer Ingelheim Co., Ltd.). The obtained suspension was homogenized three times in a polytron homogenizer (Kinematica) at 20,000 rpm for 30 sec. The obtained cell disruption solution was clarified by centrifugation at 185700×g for 50 min, and filtered through a 0.45 μm filter. The filtrate was passed through a column packed with 12 ml of Ni-NTA Super Flow Gel (QUIAGEN) at a flow rate of about 5 mL/min. The column was washed with buffer A (50 mM HEPES (pH 7.5) containing 0.3 M NaCl), further washed with buffer A containing 20 mM Imidazole, and eluted with buffer A containing 100 mM Imidazole. The eluate was concentrated with Vivaspin 20 (Vivascience) with a molecular weight cut off of 30K. The obtained concentrate was dialyzed against Sephadex G-25 (Amersham Biosciences, 358 mL) equilibrated with 50 mM HEPES (pH 7.5) containing 10 mM MgCl2, 2 mM Dithiothreitol, 10 mM Tripotassium Citrate and 0.3 M NaCl. The inner dialysate was concentrated with Vivaspin 20 (Vivascience) with molecular weight cut off of 30K, and concentrate was filtered through a 0.22 μm filter to give ACC1. The obtained ACC1 was cryopreserved at −80° C.
(3) Measurement of ACC1 Inhibitory Activity
ACC1 (0.93 mg/ml) obtained in the above-mentioned (2) was diluted with an enzyme reaction buffer (50 mM HEPES (pH 7.5), 10 mM MgCl2, 10 mM Tripotassium Citrate, 2 mM Dithiothreitol, 0.75 mg/ml Fatty acid free BSA) to a concentration of 8 μg/ml, and the mixture was added to each well of a 384 well assay plate (Nunc 265196) by 10 μl. A test compound was dissolved in dimethyl sulfoxide (DMSO) and the mixture was diluted with an enzyme reaction buffer and the resulting solution (5 μl) was added to each well. The mixture was incubated at 30° C. for 60 min. Then, a substrate solution (50 mM KHCO3, 200 μM ATP, 200 μM Acetyl-CoA, 5 μl) was added to each well, and the mixture was reacted at 30° C. for 20 min (test compound addition group). […]

[2] = biological target: T2, human ACC2 (Nd) (Homo sapiens, UniProt O00763); assay: ACC2 inhibitory activity (malachite green); type: biochemical; conditions: test compound 10 μM; for inhibition at 10 µM: read-out: ACC2 10 μM inhibitory rate (%)
T2 construct: His6 (from vector pFAST-BacHTa); made in house; host or cells: SF-9 insect cells, recombinant baculovirus BAC-ACC2 (Nd)
Procedure: The ACC2 inhibitory action of the compound of the present invention was evaluated by the following method.
(1) Cloning of Human ACC2 Gene and Preparation of Recombinant Baculovirus
as §1, with “ACC2” for “ACC1”, “skeletal muscle” for “liver”, “XbaI” for “NotI”, “U89344).” for “U19822).”
as §2, with “XbaI.” for “NotI.”, “pFAST-BacHTa” for “pFAST-BacHTc”, “XbaI” for “NotI”, “ACC2/pFAST-BacHTa.” for “ACC1/pFAST-BacHTc.”
A plasmid for expression of ACC2 without a mitochondrial targeting sequence was prepared by PCR using the expression plasmid as a template, and Primer 3 (SalI restriction enzyme recognition sequence was added) and Primer 4 prepared by reference to the information of human ACC2 gene base sequence (Genbank Accession U89344).
as §2, with “Pyrobest-DNA” for “Pyrobest DNA”, “AflII.” for “NotI.”, “ACC2/pFAST-BacHTa” for “pFAST-BacHTc (Invitrogen)”, “AflII” for “NotI”, “ACC2mito7/pFAST-BacHTa.” for “ACC1/pFAST-BacHTc.”
Using the expression plasmid ACC2mito7/pFAST-BacHTa and BAC-TO-BAC Baculovirus Expression System (Invitrogen), virus stock BAC-ACC2 of recombinant Baculovirus (N terminal deleted (hereinafter Nd)) was prepared.
(2) Preparation of ACC2 (Nd) Protein
as §3, with “(2” for “(1”, “0.5×10^6” for “1×10^6”, “Wave Bioreactor (Wave)” for “2 L meyer”, “20 rpm, rocking angle 6°, oxygen concentration 30%.” for “100 rpm.”
On day 4 of the culture, 3 L of the medium for insect cells was added, the rocking angle was set to 8°, and the cells were cultured. On day 5 of the culture, 100 ml of recombinant Baculovirus BAC-ACC2 (Nd) was added, 5 L of the medium for insect cells was further added, the rocking angle was set to 11°, and the cells were cultured for 3 days. The culture medium was centrifuged at 1000×g for 10 min to give virus-infected cells. The cells were washed with phosphate buffered saline (Invitrogen) and centrifuged under the same conditions. The obtained cells were cryopreserved at −80° C.
The cryopreserved cells were thawed in ice and suspended in 900 ml of 25 mM HEPES buffer (pH 7.5) containing 10% Glycerol, 0.13 M NaCl, 1 mM EDTA, 25 mM Sodium β-Glycerophosphate and 1 mM Sodium Orthovanadate, and supplemented with Complete Protease Inhibitor (Nippon Boehringer Ingelheim Co., Ltd.). The obtained suspension was homogenized three times in a polytron homogenizer (Kinematica) at 20,000 rpm for 30 sec. The obtained cell disruption solution was clarified by centrifugation at 31000×g for 60 min, and filtered through a 0.45 μm filter. The filtrate was passed through a column packed with 60 mL of Ni-NTA Super Flow Gel (QUIAGEN) at a flow rate of about 5 mL/min. The column was washed with buffer A (50 mM HEPES (pH 7.5) containing 0.3 M NaCl), further washed with buffer A containing 20 mM Imidazole, and eluted with buffer A containing 100 mM Imidazole. The eluate was concentrated with Vivaspin 20 (Vivascience) with a molecular weight cut off of 30K. The obtained concentrate was dialyzed against 50 mM HEPES (pH 7.5) containing 10 mM MgCl2, 2 mM Dithiothreitol, 10 mM Tripotassium Citrate and 0.3 M NaCl. The inner dialysate was filtered through a 0.22 μm filter to give ACC2 (Nd). […]

T2 sequence (O00763 117-2458 limits assumed): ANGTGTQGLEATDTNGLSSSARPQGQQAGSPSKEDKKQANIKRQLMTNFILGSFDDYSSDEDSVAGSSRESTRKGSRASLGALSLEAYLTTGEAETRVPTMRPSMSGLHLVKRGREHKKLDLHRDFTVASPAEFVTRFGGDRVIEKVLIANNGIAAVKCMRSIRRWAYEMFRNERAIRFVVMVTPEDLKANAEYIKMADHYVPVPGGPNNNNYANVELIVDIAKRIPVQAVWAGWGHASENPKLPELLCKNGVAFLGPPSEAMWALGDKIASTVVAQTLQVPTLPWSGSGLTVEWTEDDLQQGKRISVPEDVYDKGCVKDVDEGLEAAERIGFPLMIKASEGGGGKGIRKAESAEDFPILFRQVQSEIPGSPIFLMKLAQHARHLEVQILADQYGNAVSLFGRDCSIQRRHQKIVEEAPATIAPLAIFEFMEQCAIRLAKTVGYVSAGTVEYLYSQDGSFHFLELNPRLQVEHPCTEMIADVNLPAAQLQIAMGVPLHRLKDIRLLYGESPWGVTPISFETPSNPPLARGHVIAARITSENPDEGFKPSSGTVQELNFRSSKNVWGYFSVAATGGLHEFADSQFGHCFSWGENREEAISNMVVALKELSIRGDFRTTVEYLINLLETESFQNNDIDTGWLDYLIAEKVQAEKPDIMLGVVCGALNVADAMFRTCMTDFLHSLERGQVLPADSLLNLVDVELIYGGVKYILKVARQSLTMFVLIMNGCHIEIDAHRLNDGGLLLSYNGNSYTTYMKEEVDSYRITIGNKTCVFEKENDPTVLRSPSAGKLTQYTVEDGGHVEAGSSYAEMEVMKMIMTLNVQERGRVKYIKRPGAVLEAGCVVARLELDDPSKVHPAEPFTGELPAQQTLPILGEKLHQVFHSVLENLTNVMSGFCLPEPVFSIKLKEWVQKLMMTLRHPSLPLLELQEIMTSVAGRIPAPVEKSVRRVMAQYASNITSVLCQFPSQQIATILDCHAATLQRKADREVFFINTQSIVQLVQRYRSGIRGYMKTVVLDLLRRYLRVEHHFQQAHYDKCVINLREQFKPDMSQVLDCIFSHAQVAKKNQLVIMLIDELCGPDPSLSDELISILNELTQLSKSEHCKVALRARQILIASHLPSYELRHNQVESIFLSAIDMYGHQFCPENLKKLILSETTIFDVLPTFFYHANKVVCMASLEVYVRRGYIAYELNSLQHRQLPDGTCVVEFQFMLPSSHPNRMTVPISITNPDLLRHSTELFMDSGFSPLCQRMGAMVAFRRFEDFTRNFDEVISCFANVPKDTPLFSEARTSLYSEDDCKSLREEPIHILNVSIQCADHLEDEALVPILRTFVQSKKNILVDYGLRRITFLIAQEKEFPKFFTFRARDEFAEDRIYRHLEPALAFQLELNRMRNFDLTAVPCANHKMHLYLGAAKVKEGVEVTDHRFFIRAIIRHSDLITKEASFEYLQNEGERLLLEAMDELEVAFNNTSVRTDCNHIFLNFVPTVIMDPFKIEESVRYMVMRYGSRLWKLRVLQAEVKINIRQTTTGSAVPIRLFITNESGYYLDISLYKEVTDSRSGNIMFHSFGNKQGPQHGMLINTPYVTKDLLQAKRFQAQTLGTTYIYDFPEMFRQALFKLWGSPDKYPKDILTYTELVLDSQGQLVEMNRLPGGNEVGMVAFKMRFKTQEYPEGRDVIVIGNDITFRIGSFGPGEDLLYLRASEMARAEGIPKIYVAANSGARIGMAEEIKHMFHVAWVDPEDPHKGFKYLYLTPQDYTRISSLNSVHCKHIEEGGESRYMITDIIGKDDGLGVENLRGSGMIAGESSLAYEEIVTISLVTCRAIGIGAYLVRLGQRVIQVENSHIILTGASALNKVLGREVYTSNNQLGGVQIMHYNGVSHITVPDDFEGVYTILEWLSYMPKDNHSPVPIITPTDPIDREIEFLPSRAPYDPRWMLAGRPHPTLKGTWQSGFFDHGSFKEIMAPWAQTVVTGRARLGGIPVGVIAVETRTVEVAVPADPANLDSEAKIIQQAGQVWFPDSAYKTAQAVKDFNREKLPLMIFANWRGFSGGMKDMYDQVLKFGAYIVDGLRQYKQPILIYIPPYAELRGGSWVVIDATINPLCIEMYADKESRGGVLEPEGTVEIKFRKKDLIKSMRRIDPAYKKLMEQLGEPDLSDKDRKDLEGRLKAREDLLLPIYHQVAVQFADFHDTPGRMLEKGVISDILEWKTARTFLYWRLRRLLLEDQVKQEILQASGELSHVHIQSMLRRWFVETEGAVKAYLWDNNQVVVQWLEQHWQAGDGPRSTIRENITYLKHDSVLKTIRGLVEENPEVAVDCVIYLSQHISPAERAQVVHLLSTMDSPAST

| SMILES | inhibition at 10 µM [1] | inhibition at 10 µM [2] | ACC1 10 μM inhibitory rate (%) [1] | ACC2 10 μM inhibitory rate (%) [2] |
| --- | --- | --- | --- | --- |
| CCOc1ccc(COc2ccc3sc(C(C)NC(C)=O)cc3c2)cc1 (stereo not drawn) [Example 39, N-(1-{5-[(4-ethoxybenzyl)oxy]-1-benzothiophen-2-yl}ethyl)acetamide] | 17% | 80% |  |  |
| CCOc1ccc(COc2ccc3oc(C(C)NC(C)=O)nc3c2)cc1 (stereo not drawn) [Example 42, N-(1-{5-[(4-ethoxybenzyl)oxy]-1,3-benzoxazol-2-yl}ethyl)acetamide] | 1% | 76% |  |  |
| CCCCOc1ccc(CCc2ccc3cc(C(C)NC(C)=O)oc3c2)cc1 (stereo not drawn) [Example 44, N-(1-{6-[2-(4-butoxyphenyl)ethyl]-1-benzofuran-2-yl}ethyl)acetamide] | 35% | 78% |  |  |
| CCCOc1ccc(CCc2ccc3cc(C(C)NC(C)=O)oc3c2)cc1 (stereo not drawn) [Example 47, optically active forms (two kinds) of N-(1-{6-[2-(4-propoxyphenyl)ethyl]-1-benzofuran-2-yl}ethyl)acetamide] |  |  | 37% | 91% |
| CCOc1ccc(COc2ccc3oc(C(C)NC(C)=O)cc3c2)c(F)c1 (stereo not drawn) [Example 48, N-(1-{5-[(2-fluoro-4-ethoxybenzyl)oxy]-1-benzofuran-2-yl}ethyl)acetamide] | 10% | 78% |  |  |
| CC(=O)NC(C)c1cc2ccc(CCc3ccc4c(c3)CCO4)cc2o1 (stereo not drawn) [Example 94, N-(1-{6-[2-(2,3-dihydro-1-benzofuran-5-yl)ethyl]-1-benzofuran-2-yl}ethyl)acetamide] | 19% | 80% |  |  |
| COCOc1ccc(CCc2ccc3cc(C(C)NC(C)=O)oc3c2)cc1 (stereo not drawn) [Example 95, N-[1-(6-{2-[4-(methoxymethoxy)phenyl]ethyl}-1-benzofuran-2-yl)ethyl]acetamide] | 43% | 80% |  |  |
| CCOc1ccc(CCc2cnc3cc([C@H](C)NC(C)=O)oc3c2)cc1 [Example 107, N-[(1S)-1-{6-[2-(4-ethoxyphenyl)ethyl]furo[3,2-b]pyridin-2-yl}ethyl]acetamide] | 12% | 70% |  |  |
| CC(=O)NC(C)c1cc2cc(OCc3ccc(OCC4CC4)cc3F)ccc2o1 (stereo not drawn) [Example 110, N-[1-(5-{[4-(cyclopropylmethoxy)-2-fluorobenzyl]oxy}-1-benzofuran-2-yl)ethyl]acetamide] | 40% | 78% |  |  |
| CCCOc1ccc(C#Cc2ccc3c(c2)O[C@H]([C@H](C)NC(C)=O)C3)cc1 [Example 115, N-[(1S)-1-{(2S)-6-[(4-propoxyphenyl)ethynyl]-2,3-dihydro-1-benzofuran-2-yl}ethyl]acetamide] | 25% | 76% |  |  |

The next lines start with the values.

| inhibition at 10 µM [1] | inhibition at 10 µM [2] | ACC1 10 μM inhibitory rate (%) [1] | ACC2 10 μM inhibitory rate (%) [2] | SMILES |
| --- | --- | --- | --- | --- |
|  |  | 24% | 63% | CC(=O)NC(C)c1cc2cc(OCc3ccc(OCC4CC4)cc3F)ccc2o1 (stereo not drawn) [Example 116 (retention time longer), N-[1-(5-{[4-(cyclopropylmethoxy)-2-fluorobenzyl]oxy}-1-benzofuran-2-yl)ethyl]acetamide] |
| 8% | 78% |  |  | CCOc1ccc(CCc2ccc3cc(C(C)NC(C)=O)oc3n2)cc1 (stereo not drawn) [Example 123, N-(1-{6-[2-(4-ethoxyphenyl)ethyl]furo[2,3-b]pyridin-2-yl}ethyl)acetamide] |
| 16% | 81% |  |  | CCOc1ccc(CCc2ccc3cc(C(C)Nc4ccon4)oc3c2)cc1 (stereo not drawn) [Example 124, N-(1-{6-[2-(4-ethoxyphenyl)ethyl]-1-benzofuran-2-yl}ethyl)isoxazol-3-amine] |
| 33% | 83% |  |  | CCOc1ccc(/C=C/c2ccc3cc(C(C)NC(C)=O)oc3c2)cc1 (stereo not drawn) [Example 125, N-(1-{6-[(E)-2-(4-ethoxyphenyl)ethenyl]-1-benzofuran-2-yl}ethyl)acetamide] |
| 46% | 91% |  |  | CC(=O)NC(C)c1cc2cc(OCc3ccc(OCC4CC4)cc3)ccc2o1 (stereo not drawn) [Example 132 (retention time longer), N-[1-(5-{[4-(cyclopropylmethoxy)benzyl]oxy}-1-benzofuran-2-yl)ethyl]acetamide] |

Source: patent US8501804B2, “Bicyclic compound” (Takeda Pharmaceutical Company Limited, priority 2008, dated 2013)
